One assay deals with Streptococcus pneumoniae. The experiment in a line: Antibacterial activity against Streptococcus pneumoniae incubated for 24 to 48 hrs by agar diffusion well method. Format: functional. Conditions: time 24-48 hrs. On the technique in general: A growth-free zone around the sample is the usual read-out of agar diffusion tests.
In assay [1] the test system is Bacillus subtilis. Nature of the assay: Antibacterial activity against Bacillus subtilis incubated for 24 to 48 hrs by agar diffusion well method. Format: functional. The following applies: time 24-48 hrs.
For assay [2], the system named is Pseudomonas aeruginosa. Nature of the assay: Antibacterial activity against Pseudomonas aeruginosa incubated for 24 to 48 hrs by agar diffusion well method. Format: functional. The following applies: time 24-48 hrs.
Assay [3] relates to Escherichia coli. The experiment in a line: Antibacterial activity against Escherichia coli incubated for 24 to 48 hrs by agar diffusion well method. Format: functional. The following applies: time 24-48 hrs.
A further assay has as its system Aspergillus fumigatus. The experiment in a line: Antifungal activity against Aspergillus fumigatus RCMB 02568. Format: functional.
Assay [4] has as its system Syncephalastrum racemosum. Nature of the assay: Antifungal activity against Syncephalastrum racemosum RCMB 05922. Format: functional.
The next assay concerns Geotrichum candidum. Nature of the assay: Antifungal activity against Geotrichum candidum RCMB 05097. Format: functional.
A further assay concerns Candida albicans. Nature of the assay: Antifungal activity against Candida albicans RCMB 05036. Format: functional.
The subject of assay [5] is Mycobacterium tuberculosis. Nature of the assay: Antimycobacterial activity against active stage of Mycobacterium tuberculosis H37Ra ATCC 25177 assessed as minimum inhibitory concentration by XTT assay. Format: functional. For orientation: Formazan colour is commonly taken as a measure of viable cells.
In assay [6] the test system is Mycobacterium tuberculosis. The experiment in a line: Antimycobacterial activity against dormant stage of Mycobacterium tuberculosis H37Ra ATCC 25177 assessed as minimum inhibitory concentration by XTT assay. Format: functional.
The subject of assay [7] is A549. The experiment in a line: Anticancer activity against human A549 cells by MTT assay. Format: functional, cell-based.
Assay [8] relates to Staphylococcus aureus. The experiment in a line: Antibacterial activity against Staphylococcus aureus by disc diffusion method. Format: functional.
For assay [9], the system named is Bacillus subtilis. The experiment in a line: Antibacterial activity against Bacillus subtilis by disc diffusion method. Format: functional.
Assay [10] concerns Escherichia coli. Nature of the assay: Antibacterial activity against Escherichia coli by disc diffusion method. Format: functional.
For assay [11], the system named is Pseudomonas aeruginosa. The experiment in a line: Antibacterial activity against Pseudomonas aeruginosa by disc diffusion method. Format: functional.
Assay [12] has as its system Escherichia coli. The experiment in a line: Antibacterial activity against Escherichia coli NCIM 2688 measured after 8 hrs. Format: functional.
Assay [13] deals with Pseudomonas aeruginosa. The experiment in a line: Antibacterial activity against Pseudomonas aeruginosa NCIM […] measured after 8 hrs. Format: functional.
Assay [14] has as its system Bacillus subtilis. Nature of the assay: Antibacterial activity against Bacillus subtilis NCIM 2079 measured after 12 hrs. Format: functional.
Assay [15] has as its system Staphylococcus aureus. The experiment in a line: Antibacterial activity against Staphylococcus aureus NCIM 2010 measured after 12 hrs. Format: functional.
A further assay deals with Aspergillus niger. Nature of the assay: Antifungal activity against Aspergillus niger. Format: functional.
The subject of another assay is Aspergillus flavus. Nature of the assay: Antifungal activity against Aspergillus flavus. Format: functional.
A further assay deals with HepG2. Nature of the assay: cells. Format: functional, cell-based. Conditions: Homo sapiens.
The nature of assay [16]: Antioxidant activity assessed as DPPH radical scavenging activity at 1 mg/ml relative to control. Format: functional. For orientation: DPPH is a stable violet radical that fades when it is reduced.
The subject of a further assay is MDA-MB-435. Nature of the assay: Antiproliferative activity against human MDA-MB-435 cells. Format: functional, cell-based.
Assay [17] has as its system A549. The experiment in a line: Antiproliferative activity against human A549 cells. Format: functional, cell-based.

Broadly, the MIC is the lowest concentration found to suppress growth. Broadly, the IC50 is the point on the concentration scale where inhibition reaches its midpoint. Broadly, the MIC90 is the lowest concentration that inhibits either 90% of growth or 90% of the strains tested, depending on the study.

Structures are written as SMILES. Converted amounts (≈) assume the structure as drawn. The source made the active and inactive calls. No cut-off for these calls is given here.

Description for HepG2: Antiproliferative activity against human HepG2 cells

Regarding `CCOC(=O)N1C/C(=C\c2ccc(Cl)cc2)C(=O)[C@@]2(C1)[C@H](c1ccc(Cl)cc1)CN(C)[C@]21C(=O)Nc2ccccc21`, the MIC was found to be 0.12 µg/mL (≈ 0.203 µM) in the assay on Streptococcus pneumoniae; 0.015 µg/mL (≈ 0.0254 µM) in the assay on Bacillus subtilis [1]; 15.6 µg/mL (≈ 26.5 µM) against Pseudomonas aeruginosa [2]; 1.95 µg/mL (≈ 3.3 µM) in the assay on Escherichia coli [3]; 0.015 µg/mL (≈ 0.0254 µM) against Aspergillus fumigatus; 1.95 µg/mL (≈ 3.3 µM) in [4]. In addition, the MIC against Geotrichum candidum turned out to be 0.015 µg/mL (≈ 0.0254 µM); in the assay on Candida albicans, 0.06 µg/mL (≈ 0.102 µM).

In the case of `Cc1cc2c(c(=O)o1)C1(C(=O)N(Cc3cn(Cc4ccc(Cl)cc4)nn3)c3ccc(Cl)cc31)C(C#N)=C(N)O2` (stereo not drawn), the values for the MIC in [5] and in assay [6] were 5.39 µg/mL (≈ 9.6 µM) and 4.81 µg/mL (≈ 8.57 µM), respectively.

Regarding `C#CCN1C(=O)[C@]2(c3ccccc31)N(C)C[C@@](C#N)(C(=O)c1c[nH]c3ccccc13)[C@@]21C(=O)Nc2ccccc21`, in the assay on A549 [7], the IC50 came out at 50 µM.

On to `CC1(C)CC(=O)C2=C(C1)N(c1ccccn1)C(=O)C21C2=C(Nc3ccccc31)C(=O)CC(C)(C)C2` (stereo not drawn), for which the MIC came to 125 µg/mL (≈ 267 µM) in the assay with Staphylococcus aureus [8], 50 µg/mL (≈ 107 µM) against Bacillus subtilis [9] and 62 µg/mL (≈ 133 µM) against Escherichia coli [10]. For the same compound, in the assay on Pseudomonas aeruginosa [11], the MIC result is “inactive”.

On to `Cc1ccc(Cn2cc(CN3C(=O)C4(C(C#N)=C(N)Oc5cc(C)oc(=O)c54)c4ccccc43)nn2)cc1` (stereo not drawn), for which the MIC was found to be 14 µg/mL (≈ 27.6 µM) in assay [5] and 7.3 µg/mL (≈ 14.4 µM) in assay [6]. Moreover, the MIC90 in the assay with Escherichia coli [12] is 1.97 µg/mL (≈ 3.89 µM); against Pseudomonas aeruginosa [13] it was 3.08 µg/mL (≈ 6.08 µM); with Bacillus subtilis [14], 2.85 µg/mL (≈ 5.63 µM); with Staphylococcus aureus [15], 4.27 µg/mL (≈ 8.43 µM).

`COc1ccccc1N1C(=O)C2(C3=C(Nc4ccccc42)C(=O)CC(C)(C)C3)C2=C1CC(C)(C)CC2=O` (stereo not drawn): the minimum inhibitory concentration (MIC) in the assay on Staphylococcus aureus [8] is 75 µg/mL (≈ 151 µM); against Bacillus subtilis [9], 75 µg/mL (≈ 151 µM); in the assay on Escherichia coli [10], 175 µg/mL (≈ 352 µM); against Pseudomonas aeruginosa [11], 100 µg/mL (≈ 201 µM).

In the case of `CC(C)CC1NC2(C(=O)Nc3ccccc32)C(C(=O)c2ccc(F)cc2)C1c1ccc(Br)cc1` (stereo not drawn), the results for the MIC against Aspergillus niger and against Aspergillus flavus were 30 µg/mL (≈ 57.5 µM) and 20 µg/mL (≈ 38.4 µM), respectively.

With `O=C1C(=O)c2ccccc2C2=C1C1(C(=O)Nc3ccc(F)cc31)N1NN=NC1=N2` (stereo not drawn), in the assay on HepG2, the IC50 is 2.9 µM.

As for `O=C(c1ccc(F)cc1)C1C(c2ccc(Br)cc2)C(CO)NC12C(=O)Nc1ccccc12` (stereo not drawn), the MIC was found to be 20 µg/mL (≈ 40.4 µM) with Aspergillus niger and 30 µg/mL (≈ 60.6 µM) in the assay with Aspergillus flavus. The Activity in [16] came out at 87.4%.

On to `N#CC1=C(N)OC2=C(C(=O)c3ccccc32)C12C(=O)Nc1ccc(Br)cc12` (stereo not drawn), for which the IC50 in the assay on MDA-MB-435 was determined as 1.8 µM.

In turn, `Cc1ccc2c(c1)C1(C(=O)N2)N2CSCC2C(c2ncc[nH]2)C1(C#N)C(=O)c1c[nH]c2ccccc12` (stereo not drawn) registered an IC50 in the assay with A549 [17] of 66.3 µM.

Consider `N[C@@H](CCC(=O)N[C@@H](CS)C(=O)NCC(=O)O)C(=O)O`, for which the Activity in assay [16] was determined as 92%.

In the assay on A549 [17], `COc1ccc2[nH]cc(C(=O)C3(C#N)C(c4ncc[nH]4)CN(C)C34C(=O)Nc3ccccc34)c2c1` (stereo not drawn) gave an IC50 of 66.3 µM.

With `O=C(c1ccc(F)cc1)C1C(c2ccc(Cl)cc2)C(CO)NC12C(=O)Nc1ccccc12` (stereo not drawn), the minimum inhibitory concentration (MIC) against Aspergillus niger and in the assay with Aspergillus flavus was 20 µg/mL (≈ 44.4 µM) in each case. Besides, the Activity in [16] amounted to 88.1%.

As for `CC1(C)CC(=O)C2=C(C1)OC(N)=C(C#N)C21C(=O)N(Cc2cn(Cc3ccc(Cl)cc3)nn2)c2ccc(Br)cc21` (stereo not drawn), the minimum inhibitory concentration (MIC) is above 50 µg/mL in assay [5] and 10.6 µg/mL (≈ 17.1 µM) in assay [6]. Besides, the MIC90 against Escherichia coli [12] came to 2.86 µg/mL (≈ 4.61 µM); in the assay with Pseudomonas aeruginosa [13] it was 1.57 µg/mL (≈ 2.53 µM); in the assay on Bacillus subtilis [14] it was 3.18 µg/mL (≈ 5.13 µM); in the assay on Staphylococcus aureus [15], 1.09 µg/mL (≈ 1.76 µM).

As to `CCOC(=O)N1C/C(=C\c2ccc([N+](=O)[O-])cc2)C(=O)[C@@]2(C1)[C@H](c1ccc([N+](=O)[O-])cc1)[C@H]1CCCN1[C@]21C(=O)Nc2ccccc21`, the minimum inhibitory concentration (MIC) in the assay on Streptococcus pneumoniae stood at 1.95 µg/mL (≈ 3.06 µM); against Bacillus subtilis [1], 0.06 µg/mL (≈ 0.0941 µM); against Escherichia coli [3] it was 15.6 µg/mL (≈ 24.5 µM); in the assay on Aspergillus fumigatus, 1.95 µg/mL (≈ 3.06 µM); in assay [4], 0.49 µg/mL (≈ 0.768 µM); with Geotrichum candidum, 0.12 µg/mL (≈ 0.188 µM). The MIC entry with Pseudomonas aeruginosa [2] and in the assay on Candida albicans was “inactive” in each case.

For `NC[C@H]1O[C@H](O[C@H]2[C@H](O)[C@@H](O[C@H]3O[C@H](CO)[C@@H](O)[C@H](N)[C@H]3O)[C@H](N)C[C@@H]2N)[C@H](O)[C@@H](O)[C@@H]1O` [KANAMYCIN], the MIC90 with Escherichia coli [12] is 1.62 µg/mL (≈ 3.34 µM); in the assay with Pseudomonas aeruginosa [13] it was 0.49 µg/mL (≈ 1.01 µM); against Bacillus subtilis [14] it was 1.35 µg/mL (≈ 2.79 µM); against Staphylococcus aureus [15], above 30 µg/mL.

On to `Cc1ccc(Cn2cc(CN3C(=O)C4(C(C#N)=C(N)OC5=C4C(=O)CC(C)(C)C5)c4cc(Br)ccc43)nn2)cc1` (stereo not drawn), for which the results for the minimum inhibitory concentration (MIC) in [5] and in assay [6] were 29.2 µg/mL (≈ 48.8 µM) and 8.89 µg/mL (≈ 14.8 µM), respectively.

The record behind these values is ChEMBL document CHEMBL5226286, “The application of isatin-based multicomponent-reactions in the quest for new bioactive and druglike molecules” (Eur J Med Chem, 2021).
